Assay type in all cases: biochemical
One experiment concerns the target T1, human Yes1 enzyme (Homo sapiens, UniProt P07947).
T1 construct: made in house
The experiment is described as follows: Yes1 enzyme inhibitory activity (time-resolved fluorometry, biotinylated peptide phosphorylation). Particulars: read-out: YES_IC50. Summed up:
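Inhibition was expressed against a compound-free control to give IC50, using TR-FRET read-out (Eu-cryptate anti-pTyr antibody, streptavidin-XL665).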

The target of the next experiment is T2, human Src enzyme (Homo sapiens, UniProt P12931).
T2 construct: purchased Carna Biosciences, Inc. 08-173
T2 sequence (P12931 whole entry): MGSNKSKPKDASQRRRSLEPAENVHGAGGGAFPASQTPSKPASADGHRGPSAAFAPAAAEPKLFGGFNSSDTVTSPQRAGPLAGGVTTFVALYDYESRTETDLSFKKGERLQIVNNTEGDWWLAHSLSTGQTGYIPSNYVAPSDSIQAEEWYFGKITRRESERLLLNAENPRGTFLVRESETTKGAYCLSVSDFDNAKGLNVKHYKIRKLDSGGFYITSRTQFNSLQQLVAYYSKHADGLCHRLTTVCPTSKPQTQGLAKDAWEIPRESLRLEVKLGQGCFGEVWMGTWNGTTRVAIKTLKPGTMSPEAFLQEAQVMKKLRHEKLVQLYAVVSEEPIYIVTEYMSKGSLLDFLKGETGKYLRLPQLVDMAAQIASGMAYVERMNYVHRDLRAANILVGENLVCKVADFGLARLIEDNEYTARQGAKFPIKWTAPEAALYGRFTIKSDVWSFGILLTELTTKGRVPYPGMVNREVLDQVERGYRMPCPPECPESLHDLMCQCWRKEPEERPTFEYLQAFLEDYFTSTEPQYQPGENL
The experiment is described as follows: Src enzyme inhibitory activity (time-resolved fluorometry, biotinylated peptide phosphorylation). Particulars: read-out: SRC_IC50. Summed up:
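Compounds were tested for blocking tyrosine phosphorylation of a biotinylated peptide substrate by recombinant human Src. Phosphorylated product was quantified by time-resolved fluorometry using europium cryptate and XL665 conjugates, and IC50 was calculated against the compound-free control.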

The next experiment concerns the target T3, human Lck enzyme (Homo sapiens, UniProt P06239).
T3 construct: purchased Carna Biosciences, Inc. 08-170
The experiment is described as follows: Lck enzyme inhibitory activity (time-resolved fluorometry, biotinylated peptide phosphorylation). As to conditions: read-out: LCK_IC50. The method in brief:
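Readout pairs a europium cryptate-labelled anti-phosphotyrosine antibody with XL665-streptavidin, measured by time-resolved fluorescence. IC50 derived from percent inhibition against untreated controls.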

[1] abbreviates: biotinylated peptide phosphorylation.

IC50 data for 15 compounds are collected here from patent US10479780B2, “Aminopyrazole derivatives” (Chugai Seiyaku Kabushiki Kaisha, priority 2015, dated 2019).

Read-outs that look alike come from different tables or passages of the source.

T3 sequence (P06239 whole entry): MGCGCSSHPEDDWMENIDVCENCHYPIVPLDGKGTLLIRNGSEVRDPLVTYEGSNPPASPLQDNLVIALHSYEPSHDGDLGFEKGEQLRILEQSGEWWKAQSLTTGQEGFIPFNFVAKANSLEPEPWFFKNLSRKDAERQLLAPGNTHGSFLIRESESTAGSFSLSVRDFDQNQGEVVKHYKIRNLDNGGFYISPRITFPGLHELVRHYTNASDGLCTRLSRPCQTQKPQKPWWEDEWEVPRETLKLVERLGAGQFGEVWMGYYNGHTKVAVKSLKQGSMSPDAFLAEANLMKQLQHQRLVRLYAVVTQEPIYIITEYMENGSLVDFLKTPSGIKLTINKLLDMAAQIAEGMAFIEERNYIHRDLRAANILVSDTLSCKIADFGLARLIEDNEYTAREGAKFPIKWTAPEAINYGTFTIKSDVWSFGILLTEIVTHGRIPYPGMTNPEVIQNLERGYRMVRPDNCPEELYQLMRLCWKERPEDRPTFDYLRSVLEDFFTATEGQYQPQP
T1 sequence (P07947 whole entry): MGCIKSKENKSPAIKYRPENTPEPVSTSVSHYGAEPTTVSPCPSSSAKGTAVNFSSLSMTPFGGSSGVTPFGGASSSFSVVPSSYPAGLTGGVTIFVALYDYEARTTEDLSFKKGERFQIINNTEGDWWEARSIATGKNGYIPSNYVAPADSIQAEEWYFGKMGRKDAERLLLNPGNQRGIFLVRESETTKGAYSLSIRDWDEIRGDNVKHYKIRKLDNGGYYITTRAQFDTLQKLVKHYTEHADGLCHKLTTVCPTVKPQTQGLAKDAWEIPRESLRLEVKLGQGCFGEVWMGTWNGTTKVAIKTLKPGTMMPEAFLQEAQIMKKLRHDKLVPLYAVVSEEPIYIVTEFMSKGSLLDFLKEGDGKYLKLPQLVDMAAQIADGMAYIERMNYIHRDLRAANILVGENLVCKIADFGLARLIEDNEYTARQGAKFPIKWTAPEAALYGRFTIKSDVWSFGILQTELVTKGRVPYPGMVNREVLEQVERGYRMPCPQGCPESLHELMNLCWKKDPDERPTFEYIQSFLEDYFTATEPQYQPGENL

As to `Cc1cc(-n2ncc(C(=O)c3cc4cc(OC5CCN(C(C)C)CC5)c(N5CCC(N6CCOCC6)CC5)cc4[nH]3)c2N)c(F)cc1Oc1ccccc1F` [Example 5-1-215, [5-amino-1-[2-fluoro-4-(2-fluorophenoxy)-5-methylphenyl]pyrazol-4-yl]-[6-(4-morpholin-4-ylpiperidin-1-yl)-5-(1-propan-2-ylpiperidin-4-yl)oxy-1H-indol-2-yl]methanone], the IC50 turned out to be 0.81 nM at human Yes1 enzyme, 82 nM on human Src enzyme and 6 nM at human Lck enzyme.

In the case of `Cc1cc2cc(C(=O)c3cnn(-c4ccc(Oc5ccccc5F)cc4C)c3N)[nH]c2cc1NS(=O)(=O)c1cncc(Cl)c1` [Example 5-1-540, N-[2-[5-amino-1-[4-(2-fluorophenoxy)-2-methylphenyl]pyrazole-4-carbonyl]-5-methyl-1H-indol-6-yl]-5-chloropyridine-3-sulfonamide], the IC50 stood at 3.5 nM on human Yes1 enzyme (setting [1]), 350 nM at human Src enzyme (setting [1]) and 96 nM on human Lck enzyme (setting [1]).

Take `Cc1cc(Oc2ccccc2F)cc(C)c1-n1ncc(C(=O)c2cc3cc(F)c(NS(=O)(=O)CCCF)cc3[nH]2)c1N` [Example 5-1-040, N-[2-[5-amino-1-[4-(2-fluorophenoxy)-2,6-dimethylphenyl]pyrazole-4-carbonyl]-5-fluoro-1H-indol-6-yl]-3-fluoropropane-1-sulfonamide]: the IC50 on human Yes1 enzyme was 13 nM; at human Src enzyme, 280 nM; at human Lck enzyme, 88 nM.

For `Cc1cc(Oc2c(F)cccc2F)ncc1-n1ncc(C(=O)c2cc3cc(OC(F)F)c(N4CCCS4(=O)=O)cc3[nH]2)c1N` [Example 4-25-005, [5-amino-1-[6-(2,6-difluorophenoxy)-4-methylpyridin-3-yl]pyrazol-4-yl]-[5-(difluoromethoxy)-6-(1,1-dioxo-1,2-thiazolidin-2-yl)-1H-indol-2-yl]methanone], the IC50 at human Yes1 enzyme (setting [1]) was 3.9 nM; at human Src enzyme (setting [1]), 53 nM; on human Lck enzyme (setting [1]), 11 nM.

Take `COc1ccnc(S(=O)(=O)Nc2cc3[nH]c(C(=O)c4cnn(-c5cnc(Oc6c(F)cccc6F)cc5C)c4N)cc3cc2F)c1` [Example 5-1-513, N-[2-[5-amino-1-[6-(2,6-difluorophenoxy)-4-methylpyridin-3-yl]pyrazole-4-carbonyl]-5-fluoro-1H-indol-6-yl]-4-methoxypyridine-2-sulfonamide]: the figures for the IC50 at human Yes1 enzyme (setting [1]), at human Src enzyme (setting [1]) and at human Lck enzyme (setting [1]) were 3.7 nM, 510 nM and 98 nM, respectively.

For the compound `Cc1cc(Oc2ccccc2F)ncc1-n1ncc(C(=O)c2cc3cc(OC(F)F)c(NC4COC4)cc3[nH]2)c1N` [Example 4-23-013, [5-amino-1-[6-(2-fluorophenoxy)-4-methylpyridin-3-yl]pyrazol-4-yl]-[5-(difluoromethoxy)-6-(oxetan-3-ylamino)-1H-indol-2-yl]methanone], the IC50 on human Yes1 enzyme (setting [1]) amounted to 1.6 nM; at human Src enzyme (setting [1]) it was 40 nM; on human Lck enzyme (setting [1]) it was 4.6 nM.

On to `Cc1cc2cc(C(=O)c3cnn(-c4ccc(Oc5ccccc5F)cc4C)c3N)[nH]c2cc1N1C(=O)NC2(CCCCC2)C1=O` [Example 5-1-409, 3-[2-[5-amino-1-[4-(2-fluorophenoxy)-2-methylphenyl]pyrazole-4-carbonyl]-5-methyl-1H-indol-6-yl]-1,3-diazaspiro[4.5]decane-2,4-dione], for which the IC50 at human Yes1 enzyme (setting [1]) was found to be 3.1 nM; on human Src enzyme (setting [1]), 160 nM; at human Lck enzyme (setting [1]) it was 20 nM.

With `Cc1cc(Oc2ccccc2F)cc(F)c1-n1ncc(C(=O)c2cc3cc(F)c(NS(=O)(=O)CCCF)cc3[nH]2)c1N` [Example 4-2-019, N-[2-[5-amino-1-[2-fluoro-4-(2-fluorophenoxy)-6-methylphenyl]pyrazole-4-carbonyl]-5-fluoro-1H-indol-6-yl]-3-fluoropropane-1-sulfonamide], the IC50 on human Yes1 enzyme (setting [1]) came out at 5.3 nM; on human Src enzyme (setting [1]) it was 72 nM; on human Lck enzyme (setting [1]) it was 40 nM.

Take `COc1ccnc(S(=O)(=O)Nc2cc3[nH]c(C(=O)c4cnn(-c5cnc(Oc6c(F)cccc6F)cc5C)c4N)cc3cc2C)c1` [Example 5-1-511, N-[2-[5-amino-1-[6-(2,6-difluorophenoxy)-4-methylpyridin-3-yl]pyrazole-4-carbonyl]-5-methyl-1H-indol-6-yl]-4-methoxypyridine-2-sulfonamide]: the IC50 on human Yes1 enzyme (setting [1]) was determined as 2.7 nM; at human Src enzyme (setting [1]), 520 nM; on human Lck enzyme (setting [1]), 240 nM.

For `Cc1cc(Oc2c(F)cccc2F)ncc1-n1ncc(C(=O)c2cc3cc(OC(F)F)c(NS(=O)(=O)CCCF)cc3[nH]2)c1N` [Example 4-24-012, N-[2-[5-amino-1-[6-(2,6-difluorophenoxy)-4-methylpyridin-3-yl]pyrazole-4-carbonyl]-5-(difluoromethoxy)-1H-indol-6-yl]-3-fluoropropane-1-sulfonamide], the IC50 amounted to 4 nM on human Yes1 enzyme (setting [1]), 100 nM at human Src enzyme (setting [1]) and 28 nM on human Lck enzyme (setting [1]).

With `Cc1cc2cc(C(=O)c3cnn(-c4c(C)cc(Oc5cccc(F)c5F)cc4F)c3N)[nH]c2cc1NS(=O)(=O)CCCF` [Example 4-2-071, N-[2-[5-amino-1-[4-(2,3-difluorophenoxy)-2-fluoro-6-methylphenyl]pyrazole-4-carbonyl]-5-methyl-1H-indol-6-yl]-3-fluoropropane-1-sulfonamide], the IC50 on human Yes1 enzyme (setting [1]) was 12 nM; on human Src enzyme (setting [1]) it was 160 nM; on human Lck enzyme (setting [1]), 78 nM.

On to `Cc1cc(Oc2ccccc2F)ccc1-n1ncc(C(=O)c2cc3cc(OC(F)F)c(C4CCN(S(=O)(=O)C5CC5)CC4)cc3[nH]2)c1N` [Example 4-17-004, [5-amino-1-[4-(2-fluorophenoxy)-2-methylphenyl]pyrazol-4-yl]-[6-(1-cyclopropylsulfonylpiperidin-4-yl)-5-(difluoromethoxy)-1H-indol-2-yl]methanone], for which the results for the IC50 at human Yes1 enzyme (setting [1]), at human Src enzyme (setting [1]) and at human Lck enzyme (setting [1]) were 9.6 nM, 22 nM and 17 nM, respectively.

As for `Cc1cc(Oc2ccccc2F)ccc1-n1ncc(C(=O)c2cc3cc(F)c(N4CCC(N5CCOCC5)CC4)cc3[nH]2)c1N` [Example 5-1-128, [5-amino-1-[4-(2-fluorophenoxy)-2-methylphenyl]pyrazol-4-yl]-[5-fluoro-6-(4-morpholin-4-ylpiperidin-1-yl)-1H-indol-2-yl] methanone], the IC50 amounted to 0.75 nM on human Yes1 enzyme, 23 nM on human Src enzyme and 3.8 nM at human Lck enzyme.

In the case of `Cc1cc(Oc2ccccc2F)ccc1-n1ncc(C(=O)c2cc3cc(OCC(F)F)c(NC4CCN(S(C)(=O)=O)CC4)cc3[nH]2)c1N` [Example 4-23-017, [5-amino-1-[4-(2-fluorophenoxy)-2-methylphenyl]pyrazol-4-yl]-[5-(2,2-difluoroethoxy)-6-[(1-methylsulfonylpiperidin-4-yl)amino]-1H-indol-2-yl]methanone], the IC50 is 5.1 nM on human Yes1 enzyme (setting [1]), 28 nM on human Src enzyme (setting [1]) and 13 nM at human Lck enzyme (setting [1]).

For `Cc1cc(Oc2ccccc2F)ncc1-n1ncc(C(=O)c2cc3cc(N4CCOCC4)c(NS(C)(=O)=O)cc3[nH]2)c1N` [Example 4-24-015, N-[2-[5-amino-1-[6-(2-fluorophenoxy)-4-methylpyridin-3-yl]pyrazole-4-carbonyl]-5-morpholin-4-yl-1H-indol-6-yl]methanesulfonamide], the IC50 at human Yes1 enzyme (setting [1]) turned out to be 1.3 nM; on human Src enzyme (setting [1]), 77 nM; at human Lck enzyme (setting [1]), 16 nM.
